Measured values: patent publication US20090264457A1, “Combination of at least two 5HT6-Ligands” (priority 2007, published 2009)
Entries after “also recorded” stand apart in the source; their conditions may differ.

How the values were obtained:
5HT6 receptor = 5HT6 receptor (Homo sapiens, UniProt P50406); settings: cited from earlier work
Lister Hooded rats = assay: Novel object discrimination trial (two trial paradigm); assay type: in vivo, rat; settings: for Dose at which the maximum effect was achieved in dose response trials: i.p., drug 20 minutes before familiarisation trial, COMPOUND 1 at 1.25, 2.5, 5 or 10 mg/kg, SB-271046 at 5 or 10 mg/kg
Experimental: Adult male Lister Hooded rats (Charles River, UK) weighing 200-350 g at the start of the experiment were housed in groups of four on a 12:12 h light:dark cycle (lights on at 07:00 h). Food and water were available ad libitum throughout the study, and the room temperature (21±2° C.) and relative humidity (45-65%) were kept constant. […] Each drug combination was administered to all rats in the group over a period of 4 weeks in a random order using a seven day behavioural test interval.
The two trial novel object discrimination paradigm utilised, was as described by Ennaceur and Delacour, (1988) with minor modification (King et al., 2004b; Woolley et al., 2003). The twelve open field test arenas used for object discrimination were clear perspex boxes (39×23.5 cm with 24.5 cm high walls) to which each rat was habituated for 60 minutes the day prior to test days. On the test day the first drug was administered −40 minutes and the second drug −20 minutes before the familiarisation trial. Therefore, 20 minutes after the injection each rat received 3 minutes acclimatisation to the perspex box in absence of objects which was then followed by the 3 minute familiarisation trial and a second 3 minute choice trial following a 4 hour inter-trial interval. During both trials, exploration of each object was defined as the time spent (s) sniffing (within 1 cm of it with active vibrissae), licking, chewing or touching the object with the nose.

Sequence of 5HT6 receptor (P50406 whole entry): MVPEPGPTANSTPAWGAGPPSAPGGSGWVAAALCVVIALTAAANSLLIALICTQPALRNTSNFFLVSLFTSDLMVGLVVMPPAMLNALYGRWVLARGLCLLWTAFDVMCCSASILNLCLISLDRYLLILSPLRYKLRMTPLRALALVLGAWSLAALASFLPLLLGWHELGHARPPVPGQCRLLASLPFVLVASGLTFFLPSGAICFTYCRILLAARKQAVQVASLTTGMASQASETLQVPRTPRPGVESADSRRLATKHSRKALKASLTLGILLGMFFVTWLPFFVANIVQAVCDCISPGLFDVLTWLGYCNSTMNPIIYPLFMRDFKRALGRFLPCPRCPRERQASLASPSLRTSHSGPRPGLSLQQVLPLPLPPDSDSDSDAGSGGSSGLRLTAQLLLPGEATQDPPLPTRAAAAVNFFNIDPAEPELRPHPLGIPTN

SMILES	Functionality on the 5HT6 receptor (5HT6 receptor)	Effectiveness alone in novel object discrimination (Lister Hooded rats; COMPOUND 1 alone at 1 mg/kg i.p., 1 mg/kg)	Dose at which the maximum effect was achieved in dose response trials (Lister Hooded rats) [mg/kg]	Effectiveness alone in novel object discrimination (Lister Hooded rats; SB-271046 alone at 5 mg/kg i.p., 5 mg/kg)
CN(C)CCc1c[nH]c2ccc(NS(=O)(=O)c3c(Cl)nc4sccn34)cc12 [COMPOUND 1, 6-Chloro-imidazo[2,1-b]thiazole-5-sulfonic acid [3-(2-dimethylamino-ethyl)-1H-indol-5-yl]-amide]	agonist	either not or very low effective; also recorded: neither COMPOUND 1 at 1 mg/kg nor SB-271046 at 5 mg/kg being significantly effective	5	–
COc1ccc(NS(=O)(=O)c2sc3ccc(Cl)cc3c2C)cc1N1CCNCC1 [SB-271046, 5-Chloro-N-(4-methoxy-3-(piperazin-1-yl)phenyl)-3-methyl-2-benzothiophene sulfonamide]	antagonist	–	10	either not or very low effective; also recorded: neither COMPOUND 1 at 1 mg/kg nor SB-271046 at 5 mg/kg being significantly effective
